Results reported in patent publication US7759345B2, “Antitumoral derivatives of ET-743” (priority 2001, dated 2010).
pIC50: −log10 of the molar value.

Legend:
[1] = test system: P-388; experiment: Inhibition of cell growth by counting cells, P-388; assay type: cell-based, mouse; details: Mus musculus, P388, 72 h; three days of incubation; read-out: IC50 (molar) P-388
Summary of the method: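 Mouse P-388 lymphoid neoplasm suspension cells seeded at 1×10^4 cells/well in EMEM 5% FCS containing graded sample concentrations, in duplicate alongside drug-free growth controls. Cells counted by Coulter counter; % growth vs untreated gives dose-response curves, IC50 = concentration producing 50% growth inhibition.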

[2] = test system: Heart
Excerpt: (§2) Toxicity was asssessed by the methods reported in Toxicology in Vitro, 15 (2001) 571-577, J. Luber Narod et al.: “Evaluation of the use of in vitro methodolodies as tools for screening new compounds for potential in vivo toxicity”.

[3] = test system: MEL-28; experiment: Inhibition of cell growth by counting cells, MEL-28; assay type: cell-based, human; details: Homo sapiens, SK-MEL-28, 72 h; three days of incubation; read-out: IC50 (molar) MEL-28
Summary of the method: (§1)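 Monolayer lines were plated at 1×10^4 cells per well with compound in medium containing 5% FCS. After a 3-day incubation at 37° C, crystal violet staining gave an approximate IC50, and cell counting of duplicate wells gave the dose-response IC50.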

[4] = test system: Myelo
Excerpt: as §2

[5] = test system: HT-29; experiment: Inhibition of cell growth by counting cells, HT-29; assay type: cell-based, human; details: Homo sapiens, HT-29, 72 h; three days of incubation; read-out: IC50 (molar) HT-29
Summary of the method: as §1

[6] = test system: A-549; experiment: Inhibition of cell growth by counting cells, A-549; assay type: cell-based, human; details: Homo sapiens, A549, 72 h; three days of incubation; read-out: IC50 (molar) A-549
Summary of the method: as §1

[7] = test system: Kidney
Excerpt: as §2

[8] = test system: Liver
Excerpt: as §2

[9] = test system: Skeletal
Excerpt: as §2

[10] = test system: DU-145; experiment: Inhibition of cell growth by counting cells, DU-145; assay type: cell-based, human; details: Homo sapiens, DU-145, 72 h; three days of incubation; read-out: IC50 (molar) DU-145
Summary of the method: as §1

Structure (SMILES) | pIC50 [1] | Toxicity Data Heart [2] | pIC50 [3] | Toxicity Data Myelo [4] | pIC50 [5] | pIC50 [6] | Toxicity Data Kidney [7] | Toxicity Data Liver [8] | Toxicity Data Skeletal [9] | pIC50 [10]
COc1cc2c(cc1OC(C)=O)CCN[C@]21CS[C@@H]2c3c(OC(C)=O)c(C)c4c(c3[C@H](COC1=O)N1C2[C@H]2c3c(cc(C)c(OC)c3O)C[C@@H]([C@@H]1O)N2C)OCO4 (some centres unmarked) [Compound 57] | 9.83 | 3.48E-09 | 9.83 | 1.85E-08 | 9.83 | 9.83 | 3.35E-09 | 4.66E-09 |  | 
CCCCCCCC(=O)Oc1cc2c(cc1OC)[C@@]1(CS[C@@H]3c4c(OC(C)=O)c(C)c5c(c4[C@H](COC1=O)N1C3[C@H]3c4c(cc(C)c(OC)c4O)C[C@@H]([C@@H]1O)N3C)OCO5)NCC2 (some centres unmarked) [Compound 59] | 9.95 | 8.14E-08 | 9.95 | 4.18E-08 | 9.95 | 9.95 | 2.87E-08 | 2.53E-08 | 1.46E-07 | 9.95
COc1cc2c(cc1OC(=O)/C=C/c1ccccc1)CCN[C@]21CS[C@@H]2c3c(OC(C)=O)c(C)c4c(c3[C@H](COC1=O)N1C2[C@H]2c3c(cc(C)c(OC)c3O)C[C@@H]([C@@H]1O)N2C)OCO4 (some centres unmarked) [Compound 61] | 9.95 | 2.76E-08 | 9.95 | 1.69E-08 | 9.95 | 9.95 | 5.12E-09 | 1.32E-08 | 1.47E-08 | 9.95
C=CCOC(=O)Oc1cc2c(cc1OC)[C@@]1(CS[C@@H]3c4c(OC(C)=O)c(C)c5c(c4[C@H](COC1=O)N1C3[C@H]3c4c(cc(C)c(OC)c4O)C[C@@H]([C@@H]1O)N3C)OCO5)NCC2 (some centres unmarked) [Compound 64] | 9.93 | 5.50E-08 | 9.23 | 1.93E-08 | 9.23 | 9.23 | 1.77E-08 | 2.57E-08 | 1.66E-09 | 
COc1cc2c(cc1OC(=O)OCc1ccccc1)CCN[C@]21CS[C@@H]2c3c(OC(C)=O)c(C)c4c(c3[C@H](COC1=O)N1C2[C@H]2c3c(cc(C)c(OC)c3O)C[C@@H]([C@@H]1O)N2C)OCO4 (some centres unmarked) [Compound 65] | 9.95 | 9.00E-09 | 9.95 | 1.70E-08 | 9.95 | 9.95 | 3.15E-09 | 5.30E-09 | 3.77E-09 | 9.95
CCOc1cc2c(cc1OC)[C@@]1(CS[C@@H]3c4c(OC(C)=O)c(C)c5c(c4[C@H](COC1=O)N1C3[C@H]3c4c(cc(C)c(OC)c4O)C[C@@H]([C@@H]1O)N3C)OCO5)NCC2 (some centres unmarked) [Compound 68] |  | 1.13E-08 |  | 1.89E-08 | 9.20 | 9.20 | 5.10E-09 | 1.76E-08 | 1.27E-08 | 
C=CCOc1cc2c(cc1OC)[C@@]1(CS[C@@H]3c4c(OC(C)=O)c(C)c5c(c4[C@H](COC1=O)N1C3[C@H]3c4c(cc(C)c(OC)c4O)C[C@@H]([C@@H]1O)N3C)OCO5)NCC2 (some centres unmarked) [Compound 70] | 9.90 | 2.20E-07 | 9.90 | 6.61E-08 | 9.90 | 9.90 | 1.07E-07 | 3.16E-08 | 3.67E-08 | 9.90
COc1cc2c(cc1OC(=O)[C@H](C)NC(=O)OC(C)(C)C)CCN[C@]21CS[C@@H]2c3c(OC(C)=O)c(C)c4c(c3[C@H](COC1=O)N1C2[C@H]2c3c(cc(C)c(OC)c3O)C[C@@H]([C@@H]1O)N2C)OCO4 (some centres unmarked) [Compound 79] |  | 3.46E-08 |  | 1.35E-08 | 9.97 | 9.97 | 1.74E-08 | 2.28E-08 | 2.75E-09 | 
